Data on six molecules can be found in ChEMBL document CHEMBL1777668, “Structure-activity relationship of cyclic thiacarbocyanine tau aggregation inhibitors” (Bioorg Med Chem Lett, 2011).

For assay [1], the species on record is Homo sapiens. The assay can be described thus: Inhibition of octadecyl sulfate-induced recombinant human tau 2N4R aggregation at 1 uM by electron microscopy.
The species entered for assay [2] is Homo sapiens. The assay can be described thus: Inhibition of octadecyl sulfate-induced recombinant human tau 2N4R aggregation at 10 uM by electron microscopy.

The source made the active and inactive calls. No cut-off for these calls is given here.

Take `C1=C2\Sc3ccccc3N2CCCC[n+]2c(sc3ccccc32)/C=C/C=C2\Sc3ccccc3N2CCCC[n+]2c(sc3ccccc32)/C=C/1`: the inhibition entry in assay [1] and in assay [2] was “Active” each time.

With `C1=C2\Sc3ccccc3N2CCCCCCCC[n+]2c(sc3ccccc32)/C=C/C=C2\Sc3ccccc3N2CCCCCCCC[n+]2c(sc3ccccc32)/C=C/1`, in assay [2], the inhibition result was “Active”.

As for `C1=C2\Sc3ccccc3N2CCCCC[n+]2c(sc3ccccc32)/C=C/C=C2\Sc3ccccc3N2CCCCC[n+]2c(sc3ccccc32)/C=C/1`, the inhibition result in assay [2] was “Active”.

As for `C1=C2\Sc3ccccc3N2CCCCCCC[n+]2c(sc3ccccc32)/C=C/C=C2\Sc3ccccc3N2CCCCCCC[n+]2c(sc3ccccc32)/C=C/1`, the inhibition entry in assay [2] is “Active”.

Take `C1=C2\Sc3ccccc3N2CCC[n+]2c(sc3ccccc32)/C=C/C=C2\Sc3ccccc3N2CCC[n+]2c(sc3ccccc32)/C=C/1`: in assay [1], the inhibition result was “inactive”. The inhibition result in assay [2] is “Active”.

For the molecule `C1=C2\Sc3ccccc3N2CCCCCC[n+]2c(sc3ccccc32)/C=C/C=C2\Sc3ccccc3N2CCCCCC[n+]2c(sc3ccccc32)/C=C/1`, the inhibition result in assay [2] was “Active”.
